Assay results published in US11028427B2, “Systems and methods for proteomic activity analysis using DNA-encoded probes” (priority 2015, dated 2021).

How the values were obtained:
[1] = test system: caspase 3 in lysates from HeLa cells; test: Caspase 3 activity in HeLa cell lysates with DNA-encoded probe, qPCR; format: cell-based; conditions: HeLa cell lysates with vs without staurosporine treatment to induce apoptosis
PKA = PKA (Homo sapiens, UniProt P17612); test: PKA peptide substrate kcat/Km comparison; format: biochemical
Source text: This extracellular PKA (ecPKA) and other ectokinase activities have recently garnered interest as useful cancer markers. However, the low levels of activity present challenges for detection using conventional methods. Conventional techniques to detect ecPKA in patient samples have relied exclusively on radioactive assays; however, exposure to radioactivity is problematic for those performing the assays, as is the cumbersome amount of paperwork and red tape associated obtaining approval for the use of radioactive assays and the disposal of radioactive waste. However, the PKA level in the serum of healthy individuals has been estimated at about 3 pM, which is below other conventional assay detection limits and, thus, problematic. Using the techniques described herein, a DNA-peptide substrate probe was synthesized based on the highly specific protein inhibitor for PKA—protein kinase inhibitor (PKI)—with the sequence […]. This peptide has about a 100-fold greater kcat/Km than the RRFSL peptide for PKA and provided a significant increase (e.g., a 100-fold) in assay sensitivity. Accordingly, the method 300 for detecting proteomic activity using DNA-encoded probes could provide sensitivity for detection of PKA activity in the bloodstream of a subject to accurately identify upregulation, for example, of ecPKA, which can be indicative of cancer.

[2] = target: Biotinylated B. CAII immobilized on magnetic beads (Bos taurus, UniProt P00921); test: Enrichment of ligands via solid-phase affinity pulldown, qPCR; format: binding, bovine; conditions: for Enrichment (fold change relative to non-ligand (Bz) DNA construct): Solid Phase Affinity Pull down
Chain of Biotinylated B. CAII immobilized on magnetic beads (P00921 whole entry): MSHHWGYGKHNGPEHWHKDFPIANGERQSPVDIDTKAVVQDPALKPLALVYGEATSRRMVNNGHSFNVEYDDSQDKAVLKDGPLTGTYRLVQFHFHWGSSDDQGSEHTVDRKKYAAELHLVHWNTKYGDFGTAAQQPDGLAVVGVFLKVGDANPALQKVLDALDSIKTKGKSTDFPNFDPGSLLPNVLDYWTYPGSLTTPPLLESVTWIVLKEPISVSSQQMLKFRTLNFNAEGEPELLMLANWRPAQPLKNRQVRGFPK
Source text: To prepare constructs for test selections, two CAII ligands and a non-ligand control (FIG. 17) were synthesized on a 5′-amine-modified, 40-mer oligonucleotide, which contained a PEG spacer between two 20-mer sequences as previously described. Using these oligos as primers in a PCR with unique 100-mer templates gave 100-mer dsDNA products tethered to the ligand-containing 20-mer ssDNA. DNA templates assigned to each ligand 1302 contained a unique, internal 20-mer sequence for use as a specific priming site to enable qPCR analysis of ligand enrichments. A mock library was then prepared by mixing ligand constructs GL-CBS and D-CBS at 0.1 nM each with an excess of control, non-ligand construct (Bz) (10 nM).
Using this mixture, test selections were conducted using the crosslinking approach with the sulfonyl fluoride oligo or using a traditional solid-phase selection with CAII immobilized on magnetic beads.
Biotinylated B. CAII (1.2× based on magnetic bead capacity) was immobilized onto pre-washed Nanolink Streptavidin Magnetic Beads by incubating in 0.1 M sodium phosphate, pH 8.0, 0.25 M NaCl, 0.02% (v/v) Tween-20, 1.0 mg/mL tRNA, 10 μM BSA for 2 h at RT. The magnetic beads were then separated and supernatant removed. The CAII-bound magnetic beads were then washed with the above buffer three times and a premix of ligand-dsDNA and non-ligand-dsDNA (0.1 nM and 10 nM, respectively) in the above buffer (in the appropriate volume to give the desired effective protein concentration) was added and incubated at RT for 1.5 h. The magnetic beads were then separated and DNA supernatant removed. The CAII-bound magnetic beads were then washed with the above buffer five times, maintaining the same effective protein concentration in each wash. After the final wash, the magnetic beads were suspended in […] and heated at 95° C. for 5 min. qPCR analysis of the premix and magnetic bead elution was completed by comparison of CT standard curves of identical dsDNA constructs.

biotinylated B. CAII = biotinylated B. CAII (Bos taurus, UniProt P00921); test: Enrichment of ligands via crosslinking (SDS + stringent washes), qPCR; format: binding, bovine; conditions: 1 μM CAII
Chain of biotinylated B. CAII (P00921 whole entry): as above

BSA [3] = target: T1, BSA (Bos taurus, UniProt P02769); test: Bio-layer interferometry analysis of binding to BSA; set-up: species or system bovine; conditions: BSA at 10 μM; data not shown
T1 sequence (P02769 25-607): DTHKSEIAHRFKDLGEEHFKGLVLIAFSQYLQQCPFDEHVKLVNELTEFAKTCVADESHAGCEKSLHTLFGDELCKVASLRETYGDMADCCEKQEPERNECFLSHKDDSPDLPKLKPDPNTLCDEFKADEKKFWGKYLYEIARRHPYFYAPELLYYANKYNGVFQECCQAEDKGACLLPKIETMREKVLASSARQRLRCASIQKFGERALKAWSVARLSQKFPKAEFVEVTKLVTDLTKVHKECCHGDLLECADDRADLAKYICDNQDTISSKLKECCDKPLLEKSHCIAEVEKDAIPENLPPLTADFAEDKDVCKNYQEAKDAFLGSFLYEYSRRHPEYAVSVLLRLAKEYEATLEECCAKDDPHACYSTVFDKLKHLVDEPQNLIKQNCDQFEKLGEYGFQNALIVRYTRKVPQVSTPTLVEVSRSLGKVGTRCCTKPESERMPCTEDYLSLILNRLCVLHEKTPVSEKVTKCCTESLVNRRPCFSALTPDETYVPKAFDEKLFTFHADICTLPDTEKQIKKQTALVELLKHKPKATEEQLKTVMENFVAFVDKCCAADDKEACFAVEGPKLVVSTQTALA
Description: (§1) This crosslinking likely reflects the propensity of BSA to bind to hydrophobic small molecules and potentially to sulfonamides specifically. Thus, this labeling may still be considered ligand-dependent.
DNA conjugates were purified on a Varian Pro Star HPLC system and analytical analysis on an Agilent 1100 series HPLC system, both using Agilent Microsorb-MV 300-5 C18 250×4.6 mm reverse phase columns. Analytical separations were performed using 100 mM triethylammonium acetate (TEAA), pH 5.5 in water (A) or 100 mM triethylammonium acetate in 90% MeCN (B) with a linear gradient from 5-60% B over 22 minutes. Purifications were performed using the previous or 0.75% (v/v) 1,1,1,3,3,3-hexafluoropropan-2-ol, and 10 μM EDTA to pH 7.0 with triethylamine in water (A) or 90% MeOH (B) with a linear gradient from 5-50% B over 22 minutes. ESI-MS analysis was completed using an ABSciex 4500 QTrap from fractions collected from HFIP-based HPLC purifications. MALDI analysis was completed on an Applied Biosystems Voyager DE PRO instrument operated by the Purdue University Campus-Wide Mass Spectrometry Center after TEAA-based purification, ethanol precipitation, and ZipTip cleanup. On-DNA ligand dissociation constants were determined using a ForteBio Octet Red384. […] All gel images were recorded by a GE Healthcare Typhoon Trio+ with gel band quantifications determined using ImageJ software.

BSA [4] = target: T1, BSA; test: Crosslinking to BSA in reactions lacking the target protein, SDS-PAGE; format: binding, bovine; conditions: reactive group phenyl azide (5); reactions that lacked the target protein
Description: as §1
Photocrosslinking was performed as described above, except the system was allowed to incubate with both the ligand-ssDNA and reactive group-ssDNA′ for 30 minutes at RT. Irradiation was completed by exposure to a 4W 356 nm UV light source at 4° C. for 1 hour, quenched by the addition 6×SDS-loading buffer, and directly analyzed by SDS-PAGE. Gels were imaged immediately for FAM fluorescence and then Coomassie stained.

## CN[C@@H]1C[C@H]2O[C@@](C)([C@@H]1OC)n1c3ccccc3c3c4c(c5c6ccccc6n2c5c31)C(=O)NC4 [staurosporine]
[1]
  Increase in caspase activity: ~6 fold

## GRTGRRNSI
PKA
  kcat/Km relative to the RRFSL peptide: ~100 fold

## glycylleucine carboxybenzylsulfonamide [GL-CBS]
[2]; 1 μM CAII
  Overall enrichment in solid-phase selection compared to crosslinking selection (lower): 20 fold
  Recovery in solid-phase selection compared to crosslinking selection (greater): approximately 5 fold
  Enrichment (fold change relative to non-ligand (Bz) DNA construct): 720 fold
[2]; 17 μM CAII (estimated)
  Enrichment (fold change relative to non-ligand (Bz) DNA construct): 610 fold
Biotinylated B. CAII; Without X-linking (3'-OH ssDNA)
  Enrichment (fold change relative to non-ligand (Bz) DNA construct): 22 fold
Biotinylated B. CAII; X-linking with 3 (sulfonyl fluoride)
  Enrichment (fold change in concentration of ligand-DNA construct relative to non-ligand (Bz) DNA construct): 17,000 fold
BSA [3]
  Binding to BSA: did not indicate binding
BSA [4]
  BSA crosslinking: significant levels of BSA crosslinking
